Several values for one entry are separate records, joined by “and”; a condition that tells them apart may be missing. Identical values can stand only once. Toxic doses and inconclusive results are not listed.
Test system: P388 leukemia ip, CD2F1 mice, survival T/C
Experiment: NCI In Vivo Anticancer Drug Screen. Data for tumor model P388 Leukemia (intraperitoneal) in CD2F1 (CDF1) mice
Conditions: endpoint: median survival time, higher = longer survival
In short: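 Mice carrying the transplanted tumor received test compound or vehicle. Survival was recorded in each group, and the value is the treated-group measurement divided by that of the vehicle-treated control group.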

[1] = dose: 50.0 mg/kg/injection, schedule: Q01DX009 (ip), vehicle: saline
[2] = dose: 100.0 mg/kg/injection, schedule: Q01DX009 (ip), vehicle: saline
[3] = dose: 200.0 mg/kg/injection, schedule: Q01DX009 (ip), vehicle: saline
[4] = dose: 50.0 mg/kg/injection, schedule: Q01DX005 (ip), vehicle: saline with Tween-80
[5] = dose: 100.0 mg/kg/injection, schedule: Q01DX005 (ip), vehicle: saline with Tween-80
[6] = dose: 200.0 mg/kg/injection, schedule: Q01DX005 (ip), vehicle: saline with Tween-80
[7] = dose: 100.0 mg/kg/injection, schedule: Q04DX003 (ip), vehicle: Klucel (hydroxypropylcellulose) (HPC)
[8] = dose: 22.0 mg/kg/injection, schedule: Q04DX003 (ip), vehicle: saline with Tween-80
[9] = dose: 33.0 mg/kg/injection, schedule: Q04DX003 (ip), vehicle: saline with Tween-80
[10] = dose: 75.0 mg/kg/injection, schedule: Q04DX003 (ip), vehicle: saline with Tween-80
[11] = dose: 100.0 mg/kg/injection, schedule: Q01DX001 (ip), vehicle: saline with Tween-80
[12] = dose: 200.0 mg/kg/injection, schedule: Q01DX001 (ip), vehicle: saline with Tween-80
[13] = dose: 50.0 mg/kg/injection, schedule: Q04DX003 (ip), vehicle: saline with Tween-80
[14] = dose: 60.0 mg/kg/injection, schedule: Q01DX005 (ip), vehicle: saline with Tween-80

With `COCOc1cc(OCc2ccccc2)ccc1C(=O)/C=C/c1cc2c(cc1OCc1ccccc1)OCO2` the T/C (dose: 100.0 mg/kg/injection, schedule: Q01DX001 (ip), vehicle: Klucel (hydroxypropylcellulose) (HPC)) was 105 % of control, the T/C (dose: 200.0 mg/kg/injection, schedule: Q01DX001 (ip), vehicle: Klucel (hydroxypropylcellulose) (HPC)) was 102 % of control and the T/C (dose: 400.0 mg/kg/injection, schedule: Q01DX001 (ip), vehicle: Klucel (hydroxypropylcellulose) (HPC)) was 105 % of control.

In the case of `CN1CCN(S(=O)(=O)c2cnccc2N2CCN(CCO)CC2)CC1`, the T/C [1] is reported as 108 % of control, the T/C [2] is reported as 97 % of control and the T/C [3] is reported as 97 % of control.

For `CCN(CC)CCCC(C)Nc1ncnc2cc(Cl)ccc12` (configuration not stated), the T/C [4] was 97 % of control, the T/C [5] was 94 % of control and the T/C [6] was 94 % of control.

In the case of `CCN=C(N)Nc1nc(C)c2cc(Cl)ccc2n1`, the T/C (dose: 12.5 mg/kg/injection, schedule: Q01DX005 (ip), vehicle: saline) is reported as 104 % of control, the T/C (dose: 25.0 mg/kg/injection, schedule: Q01DX005 (ip), vehicle: saline) is reported as 104 % of control and the T/C [4] is reported as 109 % of control. The T/C (dose: 50.0 mg/kg/injection, schedule: Q01DX005 (ip), vehicle: saline) was 111 % of control.

`C=C(CC(N)=O)C(N)C(=O)O` (configuration not stated) was tested, and the T/C (dose: 60.0 mg/kg/injection, schedule: Q01DX005 (ip), vehicle: saline) was 100 % of control, the T/C (dose: 120.0 mg/kg/injection, schedule: Q01DX005 (ip), vehicle: saline) was 100 % of control and the T/C (dose: 240.0 mg/kg/injection, schedule: Q01DX005 (ip), vehicle: saline) was 100 % of control.

For `CC(CC/C=C/CO)C1CC(OS(=O)(=O)O)C2(O)C1(C)CCC1C3CCC(O)C(O)C3C(O)CC12O` (configuration not stated), the T/C (dose: 5.0 mg/kg/injection, schedule: Q01DX005 (ip), vehicle: Klucel (hydroxypropylcellulose) (HPC)) was 100 % of control, the T/C (dose: 10.0 mg/kg/injection, schedule: Q01DX005 (ip), vehicle: Klucel (hydroxypropylcellulose) (HPC)) was 106 % of control and the T/C (dose: 20.0 mg/kg/injection, schedule: Q01DX005 (ip), vehicle: Klucel (hydroxypropylcellulose) (HPC)) was 98 % of control. For the same molecule, the T/C (dose: 40.0 mg/kg/injection, schedule: Q01DX005 (ip), vehicle: Klucel (hydroxypropylcellulose) (HPC)) was 95 % of control.

For `CCCOC(=O)c1ccc2nc(NC(=O)OC)[nH]c2c1`, the T/C [4] was 96 % of control, the T/C [5] was 91 % of control and the T/C [6] was 97 % of control.

In the case of `Cl[Si]1(Cl)CCCC1`, the T/C (dose: 50.0 mg/kg/injection, schedule: Q01DX009 (ip), vehicle: other) is reported as 99 % of control, the T/C (dose: 100.0 mg/kg/injection, schedule: Q01DX009 (ip), vehicle: other) is reported as 100 % of control and the T/C (dose: 200.0 mg/kg/injection, schedule: Q01DX009 (ip), vehicle: other) is reported as 99 % of control.

For `N#CC1=Cc2ccccc2OC1`, the T/C [7] was 108 % of control, the T/C (dose: 200.0 mg/kg/injection, schedule: Q04DX003 (ip), vehicle: Klucel (hydroxypropylcellulose) (HPC)) was 108 % of control and the T/C (dose: 400.0 mg/kg/injection, schedule: Q04DX003 (ip), vehicle: Klucel (hydroxypropylcellulose) (HPC)) was 105 % of control.

In the case of `CC1=C(C)C(=O)O[C@@H]([C@](C)(O)[C@]2(O)CC[C@@]3(O)[C@@H]4C[C@H](O)[C@]5(O)[C@@H](O)C=CC(=O)[C@]5(C)[C@H]4CC[C@]23C)C1`, the T/C (dose: 4.0 mg/kg/injection, schedule: Q01DX005 (ip), vehicle: distilled water + Tween-80) is reported as 100 % of control, the T/C (dose: 8.0 mg/kg/injection, schedule: Q01DX005 (ip), vehicle: distilled water + Tween-80) is reported as 102 % of control and the T/C (dose: 16.0 mg/kg/injection, schedule: Q01DX005 (ip), vehicle: distilled water + Tween-80) is reported as 107 % of control. The T/C (dose: 32.0 mg/kg/injection, schedule: Q01DX005 (ip), vehicle: distilled water + Tween-80) was 106 % of control and 112 % of control, the T/C (dose: 64.0 mg/kg/injection, schedule: Q01DX005 (ip), vehicle: distilled water + Tween-80) was 99 % of control and 107 % of control and the T/C (dose: 128.0 mg/kg/injection, schedule: Q01DX005 (ip), vehicle: distilled water + Tween-80) was 99 % of control.

`Cc1ccc2c(Nc3ccc(NS(C)(=O)=O)cc3)c3ccccc3nc2c1C` was tested, and the T/C (dose: 0.59 mg/kg/injection, schedule: Q01DX009 (ip), vehicle: saline with Tween-80) was 110 % of control, the T/C (dose: 5.0 mg/kg/injection, schedule: Q01DX009 (ip), vehicle: other) was 154 % of control and the T/C (dose: 10.0 mg/kg/injection, schedule: Q01DX009 (ip), vehicle: other) was 165 % of control. The T/C (dose: 19.4 mg/kg/injection, schedule: Q04DX003 (ip), vehicle: water) was 123 % of control, the T/C (dose: 20.0 mg/kg/injection, schedule: Q01DX009 (ip), vehicle: other) was 197 % of control and the T/C [8] was 154 % of control. The T/C [9] was 168 % of control, the T/C [10] was 195 % of control and 218 % of control and the T/C (dose: 90.0 mg/kg/injection, schedule: Q04DX003 (ip), vehicle: water) was 155 % of control. The T/C (dose: 150.0 mg/kg/injection, schedule: Q04DX003 (ip), vehicle: saline with Tween-80) was 254 % of control and the T/C (dose: 300.0 mg/kg/injection, schedule: Q04DX003 (ip), vehicle: saline with Tween-80) was 86 % of control.

With `N#CCCN(CCC#N)c1ccc(/C=C2/C=C(c3ccccc3)OC2=O)cc1` the T/C [11] was 97 % of control, the T/C [12] was 94 % of control and the T/C (dose: 400.0 mg/kg/injection, schedule: Q01DX001 (ip), vehicle: saline with Tween-80) was 90 % of control.

With `O=C1/C(=C/c2ccccc2)CNC/C1=C\c1ccccc1` the T/C (dose: 60.0 mg/kg/injection, schedule: Q01DX005 (ip), vehicle: Klucel (hydroxypropylcellulose) (HPC)) was 102 % of control, the T/C (dose: 120.0 mg/kg/injection, schedule: Q01DX005 (ip), vehicle: Klucel (hydroxypropylcellulose) (HPC)) was 111 % of control and the T/C (dose: 240.0 mg/kg/injection, schedule: Q01DX005 (ip), vehicle: Klucel (hydroxypropylcellulose) (HPC)) was 116 % of control.

`CC(C)(C)S(=O)(=O)C(C)(C)C` was tested, and the T/C (dose: 25.0 mg/kg/injection, schedule: Q01DX001 (ip), vehicle: saline with Tween-80) was 109 % of control, the T/C (dose: 50.0 mg/kg/injection, schedule: Q01DX001 (ip), vehicle: saline with Tween-80) was 111 % of control and the T/C [11] was 95 % of control. For the same molecule, the T/C [12] was 100 % of control.

For `O=NN(CCF)C(=O)NC12CC3CC(CC(C3)C1)C2`, the T/C [8] was 175 % of control, the T/C [9] was 195 % of control and the T/C [13] was 225 % of control. For the same molecule, the T/C [10] was 240 % of control and the T/C [7] was 259 % of control.

For `Cc1n[nH]c2ccc([N+](=O)[O-])cc2c1=O`, the T/C (dose: 6.25 mg/kg/injection, schedule: Q01DX009 (ip), vehicle: saline with Tween-80) was 100 % of control, the T/C (dose: 12.5 mg/kg/injection, schedule: Q01DX009 (ip), vehicle: saline with Tween-80) was 100 % of control and the T/C (dose: 25.0 mg/kg/injection, schedule: Q01DX009 (ip), vehicle: saline with Tween-80) was 90 % of control. For the same molecule, the T/C [13] was 100 % of control, the T/C (dose: 100.0 mg/kg/injection, schedule: Q04DX003 (ip), vehicle: saline with Tween-80) was 95 % of control and the T/C (dose: 200.0 mg/kg/injection, schedule: Q04DX003 (ip), vehicle: saline with Tween-80) was 100 % of control.

In the case of `O=C(O)CN1CC(=O)N(c2ccccc2)C1=S`, the T/C [1] is reported as 101 % of control, the T/C [2] is reported as 97 % of control and the T/C [3] is reported as 93 % of control.

With `S=CN1CCCCC1` the T/C (dose: 15.0 mg/kg/injection, schedule: Q01DX005 (ip), vehicle: saline with Tween-80) was 98 % of control, the T/C (dose: 30.0 mg/kg/injection, schedule: Q01DX005 (ip), vehicle: saline with Tween-80) was 106 % of control and the T/C [14] was 106 % of control.

`CC1COC(C)(C)P(c2ccccc2)C1` (configuration not stated) was tested, and the T/C [14] was 102 % of control, the T/C (dose: 120.0 mg/kg/injection, schedule: Q01DX005 (ip), vehicle: saline with Tween-80) was 105 % of control and the T/C (dose: 240.0 mg/kg/injection, schedule: Q01DX005 (ip), vehicle: saline with Tween-80) was 106 % of control.

`CC1OC(OC23C(=O)CC(C)(O)CC2(O)C=CC2=C3C(=O)c3ccc(C4CC(OC5CCC(OC6CC(O)C(O)C(C)O6)C(C)O5)C(O)C(C)O4)c(O)c3C2=O)CCC1O` (configuration not stated) was tested, and the T/C (dose: 1.0 mg/kg/injection, schedule: Q01DX005 (ip), vehicle: DMSO) was 104 % of control, the T/C (dose: 2.0 mg/kg/injection, schedule: Q01DX005 (ip), vehicle: DMSO) was 105 % of control and the T/C (dose: 4.0 mg/kg/injection, schedule: Q01DX005 (ip), vehicle: DMSO) was 99 % of control. The T/C (dose: 6.25 mg/kg/injection, schedule: Q04DX003 (ip), vehicle: Klucel (hydroxypropylcellulose) (HPC)) was 100 % of control, the T/C (dose: 12.5 mg/kg/injection, schedule: Q04DX003 (ip), vehicle: Klucel (hydroxypropylcellulose) (HPC)) was 91 % of control and the T/C (dose: 25.0 mg/kg/injection, schedule: Q04DX003 (ip), vehicle: Klucel (hydroxypropylcellulose) (HPC)) was 100 % of control.
